Some results are limits rather than exact numbers.

The test system of assay [1] is primary adherent fibroblast cell line derived from an Methylmalonic Acidemia (MMA) patient (GM01673, Coriell Institute for Medical Research). As to the kind of experiment: Mitochondrial respiration (Seahorse XFe96, OCR), Spare Capacity AUC. It is filed as cell-based, human. As to conditions: 10 μM compound, 1 μM FCCP for 20 cycles, relative to vehicle. Here is the method:
The effect of the compounds of the present disclosure on mitochondrial respiration was measured with a XFe96 Extracellular Flux Analyzer (Seahorse Bioscience, Agilent Technologies) and Oxygen consumption Rate (OCR) and Extracellular acidification rate (ECAR) determined.
Cell culture and treatments. Primary adherent fibroblasts were cultured in minimum essential medium (MEM) (Gibco, 25030081) supplemented with 2 mM L-Glutamine (Gibco, 25030081), 15% fetal bovine serum (FBS) (Gibco, 26400044) and 1% penicillin/streptomycin (Gibco, 5140122) at 37° C. and 5% CO2. Cells were collected for either passaging or experiment at ˜70-80% confluence. Cells were obtained by trypsinization and seeded at 10,000 cells/well in cell culture microplates (Seahorse Bioscience, 101085-004) and allowed to adhere for 48 hours in culture media. […]
Determining the optimized cell density and concentrations for stress test, such as FCCP, were achieved through methods well known to those of skill in the art. After baseline measurements of OCR, cells were challenged with compounds of the present disclosure at different concentrations (10 to 50 μM) or vehicle (DMSO, 0.1%) and a post-compound baseline was recorded. OCR was measured after sequentially adding to each well 1.5 μg/ml oligomycin (inhibitor of ATP synthase Sigma-Aldrich, 753531), then maximal OCR was determined with carbonyl cyanide 4-(trifluoromethoxy) phenylhydrazone (FCCP, Sigma-Aldrich, C2920), (uncoupler of oxidative phosphorylation) and 1.0 μM of rotenone (Sigma-Aldrich, R8875) plus antimycin A (Sigma-Aldrich, A8674) (inhibitors of mitochondrial complex I and III) for determination of rotenone-antimycin insensitive respiration together with Hoechst for nuclear staining in situ when normalized to cell counts. After the analysis and nuclear staining, the XFp microplate was transferred to the Cytation 5, and the nuclear images were captured, the individual nuclei were identified and counted by BioTek Gen5 software. […]

Assay [2] has as its system Methylmalonic Acidemia (MMA) Primary fibroblasts (Tsi 5224 Trans-Hit Bio, 21498 Telethon Network of Genetic Biobanks). As to the kind of experiment: Measurement of ATP (ATPlite assay). It is filed as cell-based, human. As to conditions: 10 μM compound for 2 hours. As to the method:
Primary adherent fibroblasts were cultured in minimum essential medium (MEM) (Gibco, 25030081) supplemented with 2 mM L-Glutamine (Gibco, 25030081), 15% fetal bovine serum (FBS) (Gibco, 26400044) and 1% penicillin/streptomycin (Gibco, 5140122) at 37° C. and 5% CO2. Cells were collected for either passaging or experiment at ˜70-80% confluence. Cells were obtained by trypsinization and seeded in cell culture microplates either white plate (Thermo Fisher Scientific, 152028) for luminescent measurement or black plate (Thermo Fisher Scientific, 165305) for fluorescent based read out for different assays listed below. Cells were obtained by trypsinization and […] were seeded and allowed to adhere for 16-18 hours to have confluency around 70-80% in the cell well with culture media. After 24 hours prior to measurements (37° C., 5% CO2) media was changed to Dulbecco's Modified Eagle Medium (DMEM, Agilent Seahorse cat #103575-100) with the appropriate supplements (1 mM glucose, 2 mM L-glutamine, 1 mM pyruvate, 10% FBS).
Assay was performed according to manufacturer instructions (ATPlite Assay Perkin Elmer, 6016941). 50 μl of cell lysis buffer was added to each well with cells in 100 μl of media and incubated for 5 mins at RT in an orbital shaker at 700 rpm to lyse the cells and stabilize the ATP. […]
A general note: In ATP-based viability assays light output follows the ATP content of the culture.

Turning to `CC1(C)COC(=O)CCC(=O)SCCNC(=O)CCNC(=O)[C@@H]1O` [Compound 206, (R)-15-hydroxy-16,16-dimethyl-1-oxa-6-thia-9,13-diazacycloheptadecane-2,5,10,14-tetraone], the “increase of Spare Capacity AUC” value in assay [1] (medium with 1 mM glucose) is on record as “at least 50%”; in assay [1] (medium with 10 mM glucose, 2 mM glutamine, 1 mM pyruvate), > 10%. Moreover, the “increase of ATP levels” value in assay [2] is listed as “at least 5%”.

The values above are taken from patent US20230348506A1, “MACROCYCLIC PANTETHEINE DERIVATIVES AND USES THEREOF” (VectivBio Comet AG, priority 2019, published 2023).
